Results: patent US20200323962A1, “LIPOPHILIC PEPTIDE PRODRUGS” (YISSUM RESEARCH DEVELOPMENT COMPANY OF THE HEBREW …, priority 2017, published 2020)
Where two headings read alike, the source gives them in different places. Blank lines part the entries; values can stand above or below the compound they belong to.

Tests used:
[1] = in vitro; conditions: human; for efflux ratio at 90 min, 10 µM: Caco-2, pH 7.4, Net efflux (quotient of Papp (BA) to Papp (AB)); for Papp A→B at 90 min, 10 μM: Caco-2, pH 7.4, Papp (AB); for Papp B→A at 90 min, 10 μM: Caco-2, pH 7.4, Papp (BA)
[2] = test system: Caco-2 cells
[3] = PAMPA, pH 7.4
[4] = pH 7.4, LogD, pH 7.4 (mean / reported value)
[5] = for Papp A→B: Caco-2, Papp (AB); for Papp B→A: Caco-2, Papp (BA)
[6] = test system: P-gp; experiment: in vitro; conditions: human, Caco-2, pH 7.4, Net efflux in the presence of Verapamil

efflux ratio at 90 min, 10 µM [1]: 1.1
Papp (AB), replicate 1 [2]: 0.0 10^−6 cm/s
Mass retention [3]: 27%
Permeability, Mean [3]: <−7 Log10[10^−6 cm/s]
Permeability, replicate 1 [3]: <−7 Log10[10^−6 cm/s]
Permeability, replicate 2 [3]: <−7 Log10[10^−6 cm/s]
Permeability, replicate 3 [3]: <−7 Log10[10^−6 cm/s]
logD [4]: -0.97
Papp A→B ([5]; Mean): 0.1 ×10⁻⁶ cm/s
Papp A→B ([5]; replicate 2): 0.1 ×10⁻⁶ cm/s
Papp A→B ([5]; replicate 3): 0.1 ×10⁻⁶ cm/s
Papp B→A ([5]; Mean): 0.1 ×10⁻⁶ cm/s
Papp B→A ([5]; replicate 1): 0.1 ×10⁻⁶ cm/s
Papp B→A ([5]; replicate 2): 0.1 ×10⁻⁶ cm/s
Papp B→A ([5]; replicate 3): 0.2 ×10⁻⁶ cm/s
SMILES: C[C@@H]1NC(=O)[C@H](C)NC(=O)[C@@H](C)N(C)C(=O)[C@H](C)N(C)C(=O)[C@H](C)NC(=O)[C@H](C)NC1=O [1,6CHA, *aAAAA*A]

efflux ratio at 90 min, 10 µM [1]: 28.6
Papp A→B at 90 min, 10 μM ([1]; Mean): 0.4 ×10⁻⁶ cm/s
Papp A→B at 90 min, 10 μM ([1]; replicate 1): 0.4 ×10⁻⁶ cm/s
Papp A→B at 90 min, 10 μM ([1]; replicate 3): 0.5 ×10⁻⁶ cm/s
Papp B→A at 90 min, 10 μM ([1]; Mean): 12 ×10⁻⁶ cm/s
Papp B→A at 90 min, 10 μM ([1]; replicate 1): 9.4 ×10⁻⁶ cm/s
Papp B→A at 90 min, 10 μM ([1]; replicate 2): 12 ×10⁻⁶ cm/s
Papp B→A at 90 min, 10 μM ([1]; replicate 3): 14.7 ×10⁻⁶ cm/s
efflux ratio at 90 min, 10 µM [6]: 1.5
SMILES: C[C@H]1O[C@@H](O[C@H]2[C@@H](O)C[C@H](O[C@H]3[C@@H](O)C[C@H](O[C@H]4CC[C@@]5(C)[C@H](CC[C@@H]6[C@@H]5C[C@@H](O)[C@]5(C)[C@@H](C7=CC(=O)OC7)CC[C@]65O)C4)O[C@@H]3C)O[C@@H]2C)C[C@H](O)[C@@H]1O [Digoxin]
